From US12528777B2, “Quinazolinones derivatives for treatment of non-alcoholic fatty liver disease, preparation and use thereof” (Council of Scientific and Industrial Research, priority 2020, dated 2026)
“Also recorded” adds a separate entry of the source.

Legend:
[1] = system: ATGL; test: Western blot of ATGL level in HepG2 cells; format: cell-based; design: key to Increase in ATGL level: + = slight or in insignificant; ++ = Moderate; +++ and ++++ = active; +++ and ++++ = active; +++++ = very active; details: for Increase in ATGL level: HepG2 cells, score; for Increase in ATGL level / ATGL level in HepG2 cells: western blot; for EC50: fold increase of ATGL by densitometry, as % of 1.6 fold maximum with siCOP1, doses 10-5000 nM, read-out: EC50 (in-vitro); for ATGL level in HepG2 cells: 24 hours, 10 μM screening or 50 nM-5 μM dose dependent
Procedure, shortened: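 HepG2 cells were treated with compound 24 h (10 μM screen; 50 nM–5 μM dose series) and lysed. 30 μg protein was western blotted for ATGL, with actin as loading reference. ATGL increase was expressed as percent of the 1.6-fold siCOP1 maximum and plotted against log concentration for EC50.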

[2] = Plasma stability assay; format: in vitro ADME, human; details: for Mean % remaining at 2 hrs in human Plasma: 1 μM, 37° C., 120 min, LC-MS/MS; for Plasma stability: human plasma, after 2 hours, with respect to Propantheline
Protocol: 1 mM Stock of test compound was prepared from 10 mM initial stock solution of compounds by diluting 10 μL of 10 mM stock with 90 μL of DMSO. Then 10 μL of 1 mM stock was diluted with 90 µL of DMSO to give 100 μM concentration. The frozen plasma was thawed at room temperature and centrifuged at 1400 rpm at 4° C., for 15 minutes. Approximately […] of the clear supernatant fraction was transferred to a separate tube and was used for the assay. Final working stock of 1 μM was prepared by diluting 3 μL of 100 μM with 297 μL of plasma. Plasma containing the test compound was incubated for 120 min at 37° C. in shaker with 500 rpm. 50 μL of aliquot of sample at 0, 15, 30, 60 and 120 minutes were precipitated with 150 μL of acetonitrile containing internal standard and centrifuged at 4000 rpm at 4° C. for 20 minutes. 120 μL of supernatant was diluted with 120 μL of water and analyzed by LC-MS/MS.

[3] = molecular target: COP1 (Homo sapiens, UniProt Q8NHY2); test: Immunoprecipitation assay of COP1 autoubiquitination in HepG2 cells; format: cell-based; details: 5 μM, 24 hours, MG-132
COP1, sequence (Q8NHY2 whole entry): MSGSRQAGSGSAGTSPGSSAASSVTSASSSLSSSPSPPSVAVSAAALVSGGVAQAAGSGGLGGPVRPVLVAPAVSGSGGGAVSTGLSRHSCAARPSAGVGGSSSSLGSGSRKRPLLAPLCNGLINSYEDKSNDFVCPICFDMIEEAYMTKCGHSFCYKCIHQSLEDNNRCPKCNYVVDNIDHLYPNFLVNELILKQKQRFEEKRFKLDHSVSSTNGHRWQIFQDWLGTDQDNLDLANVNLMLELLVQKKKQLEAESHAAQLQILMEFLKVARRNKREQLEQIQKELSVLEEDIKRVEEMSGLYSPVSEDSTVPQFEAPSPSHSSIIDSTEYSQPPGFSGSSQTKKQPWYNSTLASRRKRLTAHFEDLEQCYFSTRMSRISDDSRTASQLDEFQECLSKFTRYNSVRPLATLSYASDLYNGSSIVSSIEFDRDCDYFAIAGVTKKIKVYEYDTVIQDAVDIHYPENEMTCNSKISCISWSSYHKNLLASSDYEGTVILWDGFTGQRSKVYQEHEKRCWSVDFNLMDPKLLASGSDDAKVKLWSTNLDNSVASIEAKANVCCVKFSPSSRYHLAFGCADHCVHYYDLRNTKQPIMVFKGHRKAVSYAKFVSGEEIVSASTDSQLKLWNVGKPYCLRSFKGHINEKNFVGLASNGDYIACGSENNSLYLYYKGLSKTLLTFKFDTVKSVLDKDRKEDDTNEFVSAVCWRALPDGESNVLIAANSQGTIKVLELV
Protocol: COP1 is capable of auto ubiquitinating its own self and getting degraded via the proteasomal pathway. To probe into this, HepG2 cells were co-transfected with HA tagged Ubiquitin and myc-flag tagged COP1. The transfected cells were treated with 5 μM of compounds 9, 10, 107 and 238 for 24 hours. MG-132, a proteasomal inhibitor, was added 4 hours before harvesting the cells. Immune complexes were pulled down with anti-myc antibody and immunoblot was done using anti-HA antibody. […] Thus, the compounds of the present disclosure could be potent therapeutic targets by being able to block the proteasomal degradation of ATGL which would then be able to carry out its lipolytic action and reverse the symptoms of steatosis.
For checking the autoubiquitination status of COP1, HepG2 cells were cotransfected with 2 μg each of Myc-DDK-COP1 and HA-Ub plasmids using Lipofectamine 2000 reagent (Invitrogen) in OptiMEM media (HiMedia). The rest of the procedure is similar to that done for Myc-ATGL.

[4] = system: HepG2 cells; test: Basal oxygen consumption rate (OCR) by Seahorse; format: cell-based; details: 5 μM, 24 hours
Protocol: HepG2 cells were plated in Seahorse cell culture microplates (24 well). Cells were treated with 5 μM of compounds 9, 107, 238 and 238a for 24 hours. The calibrator plate was dipped in the calibrator solution and incubated overnight at 37° C. in a non-CO2 incubator. The next day, cells were washed with Agilent Seahorse XF Base Medium, Minimal DMEM twice, making sure to leave at least 50 μl of media in the wells and incubated for 1 hour at 37° C. in a non-CO2 incubator. Following this, oxygen consumption rate was measured in the Seahorse instrument. FIG. 12 illustrates basal oxygen consumption rate of compounds 9, 107, 238a, and 238.

Row | SMILES | EC50 [1] | Mean % remaining at 2 hrs in human Plasma [2] | Plasma stability [2] | Increase in ATGL level [1] | ATGL level in HepG2 cells [1] | COP1 autoubiquitination in HepG2 cells [3] | Basal oxygen consumption rate [4]
1 | COCCn1c(-c2ccncc2)nc2ccc(NC(=O)Nc3cccc(C(C)=O)c3)cc2c1=O [Compound 219, 1-(3-acetylphenyl)-3-(3-(2-methoxyethyl)-4-oxo-2-(pyridin-4-yl)-3,4-dihydroquinazolin-6-yl)urea] | 0.0295 µM | 73.9% | good plasma stability |  | increased ATGL level |  | 
2 | COCCn1c(C)nc2ccc(NC(=O)Nc3cccc(C(C)=O)c3)cc2c1=O [Compound 107, 1-(3-acetylphenyl)-3-(3-(2-methoxyethyl)-2-methyl-4-oxo-3,4-dihydroquinazolin-6-yl)urea] |  |  |  | ++++ |  | effective in reducing; also recorded: markedly reduce COP1's auto ubiquitination property | higher oxygen consumption rate compared to control; also recorded: increase in the basal OCR values
3 | COCCn1c(CN2CCCCC2)nc2ccc(NC(=O)Nc3cccc(C(C)=O)c3)cc2c1=O [Compound 238, 1-(3-acetylphenyl)-3-(3-(2-methoxyethyl)-4-oxo-2-(piperidin-1-ylmethyl)-3,4-dihydroquinazolin-6-yl)urea] | 0.00102 µM | 98.1% | good plasma stability | +++++ | increased ATGL level; also recorded: most potent in increasing ATGL and COP1 levels; also recorded: increase in ATGL and COP1 levels | markedly reduce COP1's auto ubiquitination property | higher oxygen consumption rate compared to control; also recorded: increase in the basal OCR values
4 | COCCn1c(-c2cccnc2)nc2ccc(NC(=O)Nc3cccc(C(C)=O)c3)cc2c1=O [Compound 215, 1-(3-acetylphenyl)-3-(3-(2-methoxyethyl)-4-oxo-2-(pyridin-3-yl)-3,4-dihydroquinazolin-6-yl)urea] | 0.0302 µM | 80.70% | good plasma stability |  | increased ATGL level |  | 

Further lines, with some results ahead:

Row | EC50 [1] | Mean % remaining at 2 hrs in human Plasma [2] | Plasma stability [2] | SMILES | Increase in ATGL level [1] | ATGL level in HepG2 cells [1] | COP1 autoubiquitination in HepG2 cells [3] | Basal oxygen consumption rate [4]
5 | 0.00119 µM | 55.50% | good plasma stability | CC(=O)c1cccc(NC(=O)Nc2ccc3ncn(CCCN4CCOCC4)c(=O)c3c2)c1 [Compound 139, 1-(3-acetylphenyl)-3-(3-(3-morpholinopropyl)-4-oxo-3,4-dihydroquinazolin-6-yl)urea] | +++ | increased ATGL level; also recorded: some sort of increase in ATGL level |  | 
6 |  | 20.6% | lower plasma stability | COCC(C)n1cnc2ccc(NC(=O)Nc3cccc(C(C)=O)c3)cc2c1=O (centres unmarked) [Compound 179, 1-(3-acetylphenyl)-3-(3-(1-methoxypropan-2-yl)-4-oxo-3,4-dihydroquinazolin-6-yl)urea] | +++++ |  |  | 
7 |  | 16.9% | lower plasma stability | COCCn1cnc2ccc(NC(=O)Nc3cccc(C(C)=O)c3)cc2c1=O [Compound 9, 1-(3-acetylphenyl)-3-(3-(2-methoxyethyl)-4-oxo-3,4-dihydroquinazolin-6-yl)urea] | +++++ | increased ATGL level | effective in reducing; also recorded: markedly reduce COP1's auto ubiquitination property | higher oxygen consumption rate compared to control; also recorded: increase in the basal OCR values
